Laboratory results reported in patent publication US20040152786A1, “Preventive or remedy for diseases caused by cerebrovascular disturbances” (priority 2003, published 2004).

Legend:
[1] = tested on: middle-cerebral-artery permanently-occluded rat model; test: Infarct lesion area and volume, middle-cerebral-artery permanently-occluded rat model; assay type: in vivo
Excerpt: An influence of the cyclohexenone long-chain fatty alcoholic compound, which had been obtained in Preparation Example 2, on the area and volume of the infarct lesion caused by ischemia was studied using a middle-cerebral-artery permanently-occluded rat model.
The middle cerebral artery of an 8-week-old rat was electrically coagulated and occluded by a bipolar coagulator (MICRO-3D [Mizuho Co., Ltd.]). The compound obtained in Preparation Example 2 was intraperitoneally administered in an amount of 0.3 mg/kg, 2 mg/kg and 8 mg/kg rightly after the occlusion of the middle cerebral artery, respectively. After 24 hours, the brain was enucleated and cut into slices of 2 mm thick. Each slice was stained with 1% 2,3,5-triphenyltetrazolium chloride (TTC), followed by the taking of photos. The photograph was analyzed and the area of the infarct lesion was measured. The volume of the infarct lesion was calculated from the below-described equation. […]
a: infarct area (B+4) on the cross-section 4 mm forward from the forehead, b: infarct area (B+2) on the cross-section 2 mm forward from the forehead, c: infarct area (B) on the cross-section of the forehead, d: infarct area (B-2) on the cross-section 2 mm backward from the forehead, and e: infarct area (B-4) on the-cross-section 4 mm backward from the forehead.

[2] = tested on: ischemic re-perfusion rat model; test: Infarct lesion area and volume, ischemic re-perfusion rat model; assay type: in vivo
Description: An influence of the cyclohexenone long-chain fatty alcoholic compound, which had been prepared in Preparation Example 2, on each of the area and volume of the infarct lesion was studied using an ischemic re-perfusion rat model.
The 8-week-old rats were occluded, at the middle brain artery thereof, with a nylon stopper for 2 hours, followed by intraperitoneal administration of the compound of Preparation Example 2 in amounts of 0.5 mg/kg, 2 mg/kg and 8 mg/kg, respectively, rightly before re-perfusion. After removal of the nylon stopper, re-perfusion was conducted. Twenty four hours after occlusion, the brain was enucleated and each of the area and volume of the infarct lesion was measured in a similar manner to Test 2.

[3] = intraperitoneal dose of 2 mg/kg
[4] = 2 hours occlusion, intraperitoneal 0.5, 2 and 8 mg/kg rightly before re-perfusion, 24 hours after occlusion

For CC1=C(CCCCCCCCCCCCCCCO)C(C)(C)CCC1=O [Preparation Example 2, 3-(15-hydroxypentadecyl)-2,4,4-trimethyl-2-cyclohexen-1-one], the “volume of the infarct lesion” value ([1]; intraperitoneal 0.3, 2 and 8 mg/kg rightly after occlusion, after 24 hours, V=a+2(b+c+d)+e) was “reduction”, the “area of the infarct lesion” value ([1]; intraperitoneal 0.3, 2 and 8 mg/kg rightly after occlusion, brain taken after 24 hours, TTC staining) was “reduction” and the brain protective action [1, 3] was “marked brain protective action”. For the same molecule, the “area of the infarct lesion” value [2, 4] was “reduction”, the “volume of the infarct lesion” value [2, 4] was “reduction” and the brain protective action [2, 3] was “marked brain protective action”.
